Test results published in patent US8617614B2, “Sustained release preparation for tissue regeneration therapy” (Ono Pharmaceutical Co., Ltd., priority 2006, dated 2013).

Tests used:
SDF-1 = SDF-1 production promoting effect, angiogenesis kit culture, ELISA; format: cell-based, human; conditions: 100 nmol/L
Protocol: An angiogenesis kit (Kurabo Industries Ltd.) composed of normal human umbilical vein endothelial cells and normal human skin fibroblasts was procured and used.
Using a carbon dioxide incubator (BNA-121D) and using Angiogenesis Culture 2 provided with the angiogenesis kit as the liquid culture, culturing was carried out in a wet environment at 37° C. with 5% carbon dioxide/95% air.
Immediately after the kit arrived, the cells were cultured for 3 hours, following which the liquid culture was replaced and culturing was continued. Three days after the start of culturing, the liquid culture was again replaced. Six days after the start of culturing, treatment with the present drug was carried out by replacing the liquid culture. The treatment concentration was set to 100 nmol/L in each case. DMSO treatment was carried out as a negative control. Six, 24, 48 and 72 hours after treatment with the present drug, the culture supernatant was collected and furnished for measurement of the growth factors. The measured growth factors were EGF and SDF-1.
The culture supernatant was measured with the following ELISA kits.
Human SDF-1α Immunoassay (R&D Systems Inc., DSA00)

[1] = system: hippocampal CA1 region nerve cells; assay: Number of nerve cells in hippocampal CA1 region, rat 4-VO model (Nissl staining); format: in vivo
[2] = system: STZ induced diabetes model; assay: Nerve conduction velocity, STZ induced diabetes model; format: in vivo; conditions: STZ rat, Test Group 3: 3 mg/kg oral twice daily
Protocol: Female Sprague-Dawley rats (8- to 11-week-old; Japan SLC, Inc.) were intraperitoneally administered 40 mg/kg of a citrate buffer (pH, approx. 4.5) of streptozotocin (STZ; Sigma). A normal control group was intraperitoneally given only the citrate buffer. Two weeks after STZ administration, and 4, 8 and 12 weeks after the start of test solution administration, the animals were anesthetized by the intraperitoneal administration of 30 to 45 mg/kg of pentobarbital. Fur was removed from the dorsolumbar region of the rat and the animal was immobilized in the prone position, following which a needle electrode for […] stimulation (NEC Medical Systems) was inserted near the sciatic nerve, a needle electrode for […] stimulation was inserted near the Achilles tendon on the same side, and a recording needle electrode (NEC Medical Systems) was inserted in the plantar muscle on the same side. After checking that the body temperature was in a range of 37 to 38° C., square-wave stimulation (0.5 Hz, 0.1 msec, submax voltage) to the distal and proximal stimulating electrodes was applied using an electrical stimulator (SEN-3301; Nihon Kohden Corporation). The evoked potential was led out via a measuring electrode, input through a bioelectric amplifier (AB-621G, Nihon Kohden Corporation) to an evoked electromyogram averaging program (MTS50061C, Medical Try System) and averaged ten times, and the nerve conduction velocity was computed from the respective distal and proximal conduction times and the electrode interval distances. Measurement was carried out on the left leg (treated side) and right leg (untreated side) in each test group, and the respective average values thereof used as the data. In Groups 2 to 5, the feeding blood sugar level two weeks after STZ administration was measured. Of rats with blood sugar levels above 300 mg/dL, severely diabetic rats were excluded therefrom, and the remaining rats were used as diabetes model animals. Groups were formed in such a way as to make the respective groups uniform with respect to nerve conduction velocity, blood sugar level and body weight. Administration was carried out in accordance with the intended route of administration for clinical use. In Test Group 3, forced administration was carried out orally using a disposable syringe barrel and a rat stomach probe. In Test Group 4, intramuscular administration was carried out uniformly at four places within the muscle along the sciatic nerve in the femoral portion of the left leg. For subcutaneous administration in test Group 5, the animals were ether anesthetized, and subcutaneous administration was carried out in the dorsal region using a disposable syringe barrel and a disposable 25 G syringe needle. The volume of solution administered was computed based on the latest body weight. The amount of microspheres administered indicates the amount of the present drug included.

[3] = system: STZ induced diabetes model; assay: Nephropathy ameliorating action: 24 h urinary excretion, STZ induced diabetes model; format: in vivo; conditions: urine, week 12; STZ rat; Test Group 3: 3 mg/kg oral twice daily
Protocol: Female Sprague-Dawley rats (8- to 11-week-old; Japan SLC, Inc.) were intraperitoneally administered 40 mg/kg of a citrate buffer (pH, approx. 4.5) of streptozotocin (STZ; Sigma). A normal control group was intraperitoneally given only the citrate buffer. Administration was carried out in accordance with the intended route of administration for clinical use. In Test Group 3, forced administration was carried out orally using a disposable syringe barrel and a rat stomach probe. In Test Group 4, intramuscular administration was carried out uniformly at four places within the muscle along the sciatic nerve in the femoral portion of the left leg. For subcutaneous administration in test Group 5, the animals were ether anesthetized, and subcutaneous administration was carried out in the dorsal region using a disposable syringe barrel and a disposable 25 G syringe needle. The volume of solution administered was computed based on the latest body weight. In week 12 from the start of test substance administration, the rats were transferred to a metabolic cage, given water ad libitum, and the urine was collected for 24 hours. […] Using the 7170 Clinical Analyzer (Hitachi, Ltd.), the total urinary protein (pyrogallol red method), creatinine (creatinase/F-DAOS method) and urine sugar were measured.

[4] = right leg (drug-untreated side)

O=C(O)COc1cccc2c1CCC=C2CCO/N=C(\c1ccccc1)c1cccnc1 [present drug, ({5-[2-({[(1E)-phenyl(pyridin-3-yl)methylene]amino}oxy)ethyl]-7,8-dihydronaphthalen-1-yl}oxy)acetic acid]
SDF-1 relative to the solvent control group (SDF-1; 72 hours after treatment): significantly increased | SDF-1, Drug group (SDF-1; culture supernatant 72 hours after treatment): 383 ± 36.0 pg/mL | number of hippocampal CA1 pyramidal nerve cells relative to the group given the medium (Test Group 3) ([1]; rat 4-VO Test 1, day 42, s.c. twice daily, present drug 10, ornoprostil 0.1, PGE1•αCD 1.5 and 3 mg/kg): significant increase | decrease in the number of hippocampal CA1 region nerve cells relative to Test Group 1 ([1]; rat 4-VO Test 2, Test Group 2: 10 mg/kg oral twice daily, day 8): significant suppression | number of hippocampal CA1 region nerve cells ([1]; rat 4-VO Test 2, Test Group 7: medium up to day 8, 10 mg/kg oral for 34 days from day 9): increasing trend | number of hippocampal CA1 region nerve cells relative to Test Group 4 ([1]; rat 4-VO Test 2, oral 1 mg/kg (Test Group 3)): significant increases | number of hippocampal CA1 region nerve cells relative to Test Group 4 ([1]; rat 4-VO Test 2, oral 10 mg/kg (Test Group 6)): significant increases | left leg nerve conduction velocity relative to Test Group 2 ([2]; after 12 weeks): significant nerve conduction velocity increases | right leg nerve conduction velocity relative to Test Group 2 ([2]; at any of the times): A significant extension effect was not confirmed | Nerve conduction velocity (m/sec) 0 weeks ([2]; left leg (drug-treated side)): 37.5 ± 8.0 m/sec | Nerve conduction velocity (m/sec) 4 weeks ([2]; left leg (drug-treated side)): 37.8 ± 3.8 m/sec | Nerve conduction velocity (m/sec) 8 weeks ([2]; left leg (drug-treated side)): 40.8 ± 3.4 m/sec | Nerve conduction velocity (m/sec) 0 weeks [2, 4]: 38.7 ± 5.0 m/sec | Nerve conduction velocity (m/sec) 4 weeks [2, 4]: 39.0 ± 2.3 m/sec | Nerve conduction velocity (m/sec) 8 weeks [2, 4]: 39.9 ± 2.2 m/sec | Nerve conduction velocity (m/sec) 12 weeks [2, 4]: 41.3 ± 2.1 m/sec | Total excretion (mg/24 hrs) Creatinine [3]: 116.76 ± 58.15 mg/24 hrs | Total excretion (mg/24 hrs) Total protein [3]: 245.7 ± 231.9 mg/24 hrs
